Source: patent publication US6451339B2, “Compositions and methods for improved delivery of hydrophobic agents” (Lipocine, Inc., priority 1999, dated 2002)
One block for each compound: values may come before it.

Key:
[1] = value reported by the manufacturer of the commercial product, a rough average, or inventors' judgment; cited from earlier work
[2] = Surfactant combinations giving clear aqueous dispersions (maximum hydrophobic surfactant, visual optical clarity); conditions: for maximum hydrophobic surfactant concentration giving a clear aqueous dispersion: Arlacel 186 - Cremophor RH-40 pair; for effect of added solubilizer on the relative amount of hydrophobic surfactant that can be used: Cremophor RH 40 hydrophilic surfactant, 20% solubilizer; for approximate maximum grams of hydrophobic surfactant per 100 g of hydrophilic surfactant giving acceptable optical clarity: 10× aqueous dispersion, no solubilizer
[3] = weight percent of solubilizer 0
[4] = weight percent of solubilizer 20
[5] = weight percent of solubilizer 50
[6] = hydrophilic surfactant Cremophor RH40 + 20% Ethanol
[7] = hydrophilic surfactant Cremophor RH40 + 20% Glycofurol
[8] = hydrophilic surfactant Cremophor RH40 + 20% PEG-400
[9] = hydrophilic surfactant Cremophor RH40 + 20% Triacetin
[10] = hydrophilic surfactant Cremophor RH40, solubilizer (None), reproduced from Table 19
[11] = hydrophilic surfactant PEG-8 Capric/Caprylic (Labrasol)
[12] = hydrophilic surfactant PEG-25 Glyceryl trioleate (Tagat TO)
[13] = hydrophilic surfactant PEG-35 Castor Oil (Incrocas 35)
[14] = hydrophilic surfactant PEG-40H Castor Oil (Cremophor RH-40)
[15] = hydrophilic surfactant PEG-60 Corn Oil (Crovol M-70)
[16] = hydrophilic surfactant Polysorbate 80 (Tween 80)
[17] = hydrophilic surfactant Polysorbate-20 (Tween 20)

Compound: CC(C)CCC[C@@H](C)[C@H]1CC[C@H]2[C@@H]3CC=C4C[C@@H](O)CC[C@]4(C)[C@H]3CC[C@]12C [Cholesterol]
- HLB [1]: <10

- maximum hydrophobic surfactant concentration giving a clear aqueous dispersion [2, 3]: 20 g per 100 g of hydrophilic sur
- maximum hydrophobic surfactant concentration giving a clear aqueous dispersion [2, 4]: 25 g per 100 g of hydrophilic sur
- maximum hydrophobic surfactant concentration giving a clear aqueous dispersion [2, 5]: 30 g per 100 g of hydrophilic sur
Compound: CCO [Ethanol]

Compound: CCCCC/C=C\C/C=C\CCCCCCCC(=O)OCC [Ethyl linoleate]
- HLB [1]: <10

Compound: CCCCCCCC/C=C\CCCCCCCC(=O)OCC(O)CO (centres unmarked) [Glyceryl monooleate (C18:1), Glyceryl monooleate]
- effect of added solubilizer on the relative amount of hydrophobic surfactant that can be used [2]: moderate
- approximate maximum grams of hydrophobic surfactant per 100 g of hydrophilic surfactant giving a clear aqueous dispersion [2, 6]: 42 g per 100 g of hydrophilic sur
- approximate maximum grams of hydrophobic surfactant per 100 g of hydrophilic surfactant giving a clear aqueous dispersion [2, 7]: 44 g per 100 g of hydrophilic sur
- approximate maximum grams of hydrophobic surfactant per 100 g of hydrophilic surfactant giving a clear aqueous dispersion [2, 8]: 40 g per 100 g of hydrophilic sur
- approximate maximum grams of hydrophobic surfactant per 100 g of hydrophilic surfactant giving a clear aqueous dispersion [2, 9]: 40 g per 100 g of hydrophilic sur
- approximate maximum grams of hydrophobic surfactant per 100 g of hydrophilic surfactant giving a clear aqueous dispersion [2, 10]: 40 g per 100 g of hydrophilic sur
- approximate maximum grams of hydrophobic surfactant per 100 g of hydrophilic surfactant giving acceptable optical clarity [2, 11]: 35 g per 100 g of hydrophilic sur
- approximate maximum grams of hydrophobic surfactant per 100 g of hydrophilic surfactant giving acceptable optical clarity [2, 12]: 10 g per 100 g of hydrophilic sur
- approximate maximum grams of hydrophobic surfactant per 100 g of hydrophilic surfactant giving acceptable optical clarity [2, 13]: 15 g per 100 g of hydrophilic sur
- approximate maximum grams of hydrophobic surfactant per 100 g of hydrophilic surfactant giving acceptable optical clarity [2, 14]: 40 g per 100 g of hydrophilic sur
- approximate maximum grams of hydrophobic surfactant per 100 g of hydrophilic surfactant giving acceptable optical clarity [2, 15]: 10 g per 100 g of hydrophilic sur
- approximate maximum grams of hydrophobic surfactant per 100 g of hydrophilic surfactant giving acceptable optical clarity [2, 16]: 12 g per 100 g of hydrophilic sur
- approximate maximum grams of hydrophobic surfactant per 100 g of hydrophilic surfactant giving acceptable optical clarity [2, 17]: 10 g per 100 g of hydrophilic sur

Compound: CC(C)=CCC[C@@H](C)[C@H]1CC[C@@]2(C)C3=C(CC[C@]12C)[C@@]1(C)CC[C@H](O)C(C)(C)[C@@H]1CC3 [Ianosterol]
- HLB [1]: <10

Compound: CCCCC/C=C\C/C=C\CCCCCCCC(=O)OC(C)C [Isopropyl linoleate]
- HLB [1]: <10

Compound: CCCCCCCCCCCCCC(=O)OC(C)C [Isopropyl myristate]
- HLB [1]: <10

- approximate maximum grams of hydrophobic surfactant per 100 g of hydrophilic surfactant giving acceptable optical clarity [2, 11]: 90 g per 100 g of hydrophilic sur
- approximate maximum grams of hydrophobic surfactant per 100 g of hydrophilic surfactant giving acceptable optical clarity [2, 12]: 10 g per 100 g of hydrophilic sur
- approximate maximum grams of hydrophobic surfactant per 100 g of hydrophilic surfactant giving acceptable optical clarity [2, 13]: 40 g per 100 g of hydrophilic sur
- approximate maximum grams of hydrophobic surfactant per 100 g of hydrophilic surfactant giving acceptable optical clarity [2, 14]: 45 g per 100 g of hydrophilic sur
- approximate maximum grams of hydrophobic surfactant per 100 g of hydrophilic surfactant giving acceptable optical clarity [2, 16]: 70 g per 100 g of hydrophilic sur
- approximate maximum grams of hydrophobic surfactant per 100 g of hydrophilic surfactant giving acceptable optical clarity [2, 17]: 95 g per 100 g of hydrophilic sur
Compound: CCCCCCCCCCCCOCCOCCOCCOCCO [PEG-4 lauryl ether]

Compound: CCCCCCCCCCCCCCCCCC(=O)OCC(CO)(CO)COC(=O)CCCCCCCCCCCCCCCCC [Pentaerythrityl distearate]
- HLB [1]: >10

Compound: CCCCCCCC/C=C\CCCCCCCC(=O)OCC(COC(=O)CCCCCCC/C=C\CCCCCCCC)(COC(=O)CCCCCCC/C=C\CCCCCCCC)COC(=O)CCCCCCC/C=C\CCCCCCCC [Pentaerythrityl tetraoleate]
- HLB [1]: >10

- maximum hydrophobic surfactant concentration giving a clear aqueous dispersion [2, 3]: 20 g per 100 g of hydrophilic sur
- maximum hydrophobic surfactant concentration giving a clear aqueous dispersion [2, 4]: 28 g per 100 g of hydrophilic sur
- maximum hydrophobic surfactant concentration giving a clear aqueous dispersion [2, 5]: 30 g per 100 g of hydrophilic sur
Compound: CC(O)CO (centres unmarked) [Propylene Glycol]

Compound: CCCCCCCCCC(=O)OCC(C)OC(=O)CCCCCCCCC (centres unmarked) [Propylene glycol dicaprate]
- HLB [1]: >6

- maximum hydrophobic surfactant concentration giving a clear aqueous dispersion [2, 3]: 20 g per 100 g of hydrophilic sur
- maximum hydrophobic surfactant concentration giving a clear aqueous dispersion [2, 4]: 28 g per 100 g of hydrophilic sur
- maximum hydrophobic surfactant concentration giving a clear aqueous dispersion [2, 5]: 25 g per 100 g of hydrophilic sur
Compound: CC(=O)OCC(COC(C)=O)OC(C)=O [Triacetin]

- approximate maximum grams of hydrophobic surfactant per 100 g of hydrophilic surfactant giving acceptable optical clarity [2, 11]: 25 g per 100 g of hydrophilic sur
- approximate maximum grams of hydrophobic surfactant per 100 g of hydrophilic surfactant giving acceptable optical clarity [2, 12]: 10 g per 100 g of hydrophilic sur
- approximate maximum grams of hydrophobic surfactant per 100 g of hydrophilic surfactant giving acceptable optical clarity [2, 14]: 10 g per 100 g of hydrophilic sur
- approximate maximum grams of hydrophobic surfactant per 100 g of hydrophilic surfactant giving acceptable optical clarity [2, 15]: 10 g per 100 g of hydrophilic sur
Compound: Glyceryl mono-, dioleate

- approximate maximum grams of hydrophobic surfactant per 100 g of hydrophilic surfactant giving acceptable optical clarity [2, 11]: 25 g per 100 g of hydrophilic sur
- approximate maximum grams of hydrophobic surfactant per 100 g of hydrophilic surfactant giving acceptable optical clarity [2, 12]: 10 g per 100 g of hydrophilic sur
- approximate maximum grams of hydrophobic surfactant per 100 g of hydrophilic surfactant giving acceptable optical clarity [2, 13]: 20 g per 100 g of hydrophilic sur
- approximate maximum grams of hydrophobic surfactant per 100 g of hydrophilic surfactant giving acceptable optical clarity [2, 14]: 30 g per 100 g of hydrophilic sur
- approximate maximum grams of hydrophobic surfactant per 100 g of hydrophilic surfactant giving acceptable optical clarity [2, 15]: 20 g per 100 g of hydrophilic sur
- approximate maximum grams of hydrophobic surfactant per 100 g of hydrophilic surfactant giving acceptable optical clarity [2, 16]: 20 g per 100 g of hydrophilic sur
- approximate maximum grams of hydrophobic surfactant per 100 g of hydrophilic surfactant giving acceptable optical clarity [2, 17]: 25 g per 100 g of hydrophilic sur
Compound: PEG-3 oleyl ether

- approximate maximum grams of hydrophobic surfactant (Arlacel 186) per 100 g of hydrophilic surfactant giving a clear aqueous dispersion ([2]; hydrophobic surfactant Arlacel 186 + 20% Ethanol): 25 g per 100 g of hydrophilic sur
- approximate maximum grams of hydrophobic surfactant (Arlacel 186) per 100 g of hydrophilic surfactant giving a clear aqueous dispersion ([2]; hydrophobic surfactant Arlacel 186 + 20% Triacetin): 25 g per 100 g of hydrophilic sur
- approximate maximum grams of hydrophobic surfactant (Arlacel 186) per 100 g of hydrophilic surfactant giving a clear aqueous dispersion ([2]; hydrophobic surfactant Arlacel 186, solubilizer (None), from Table 19): 20 g per 100 g of hydrophilic sur
Compound: PEG-20 sorbitan monolaurate

- maximum hydrophobic surfactant concentration giving a clear aqueous dispersion [2, 3]: 20 g per 100 g of hydrophilic sur
- maximum hydrophobic surfactant concentration giving a clear aqueous dispersion [2, 4]: 25 g per 100 g of hydrophilic sur
- maximum hydrophobic surfactant concentration giving a clear aqueous dispersion [2, 5]: 25 g per 100 g of hydrophilic sur
Compound: PEG-400

- approximate maximum grams of hydrophobic surfactant per 100 g of hydrophilic surfactant giving acceptable optical clarity [2, 11]: 35 g per 100 g of hydrophilic sur
- approximate maximum grams of hydrophobic surfactant per 100 g of hydrophilic surfactant giving acceptable optical clarity [2, 12]: 10 g per 100 g of hydrophilic sur
- approximate maximum grams of hydrophobic surfactant per 100 g of hydrophilic surfactant giving acceptable optical clarity [2, 13]: 10 g per 100 g of hydrophilic sur
- approximate maximum grams of hydrophobic surfactant per 100 g of hydrophilic surfactant giving acceptable optical clarity [2, 14]: 5 g per 100 g of hydrophilic sur
- approximate maximum grams of hydrophobic surfactant per 100 g of hydrophilic surfactant giving acceptable optical clarity [2, 15]: 10 g per 100 g of hydrophilic sur
- approximate maximum grams of hydrophobic surfactant per 100 g of hydrophilic surfactant giving acceptable optical clarity [2, 16]: 10 g per 100 g of hydrophilic sur
- approximate maximum grams of hydrophobic surfactant per 100 g of hydrophilic surfactant giving acceptable optical clarity [2, 17]: 35 g per 100 g of hydrophilic sur
Compound: Polyglyceryl-6 dioleate

- approximate maximum grams of hydrophobic surfactant per 100 g of hydrophilic surfactant giving a clear aqueous dispersion [2, 7]: 65 g per 100 g of hydrophilic sur
- approximate maximum grams of hydrophobic surfactant per 100 g of hydrophilic surfactant giving a clear aqueous dispersion [2, 9]: 65 g per 100 g of hydrophilic sur
- approximate maximum grams of hydrophobic surfactant per 100 g of hydrophilic surfactant giving a clear aqueous dispersion [2, 10]: 20 g per 100 g of hydrophilic sur
- approximate maximum grams of hydrophobic surfactant per 100 g of hydrophilic surfactant giving acceptable optical clarity [2, 11]: 30 g per 100 g of hydrophilic sur
- approximate maximum grams of hydrophobic surfactant per 100 g of hydrophilic surfactant giving acceptable optical clarity [2, 12]: 10 g per 100 g of hydrophilic sur
- approximate maximum grams of hydrophobic surfactant per 100 g of hydrophilic surfactant giving acceptable optical clarity [2, 13]: 30 g per 100 g of hydrophilic sur
- approximate maximum grams of hydrophobic surfactant per 100 g of hydrophilic surfactant giving acceptable optical clarity [2, 14]: 20 g per 100 g of hydrophilic sur
- approximate maximum grams of hydrophobic surfactant per 100 g of hydrophilic surfactant giving acceptable optical clarity [2, 15]: 15 g per 100 g of hydrophilic sur
- approximate maximum grams of hydrophobic surfactant per 100 g of hydrophilic surfactant giving acceptable optical clarity [2, 16]: 10 g per 100 g of hydrophilic sur
- approximate maximum grams of hydrophobic surfactant per 100 g of hydrophilic surfactant giving acceptable optical clarity [2, 17]: 20 g per 100 g of hydrophilic sur
Compound: Sorbitan monolaurate

Compound: Sorbitan monooleate
- effect of added solubilizer on the relative amount of hydrophobic surfactant that can be used [2]: decreases
- approximate maximum grams of hydrophobic surfactant per 100 g of hydrophilic surfactant giving a clear aqueous dispersion [2, 6]: 40 g per 100 g of hydrophilic sur
- approximate maximum grams of hydrophobic surfactant per 100 g of hydrophilic surfactant giving a clear aqueous dispersion [2, 7]: 30 g per 100 g of hydrophilic sur
- approximate maximum grams of hydrophobic surfactant per 100 g of hydrophilic surfactant giving a clear aqueous dispersion [2, 8]: 25 g per 100 g of hydrophilic sur
- approximate maximum grams of hydrophobic surfactant per 100 g of hydrophilic surfactant giving a clear aqueous dispersion [2, 9]: 40 g per 100 g of hydrophilic sur
- approximate maximum grams of hydrophobic surfactant per 100 g of hydrophilic surfactant giving a clear aqueous dispersion [2, 10]: 65 g per 100 g of hydrophilic sur
- approximate maximum grams of hydrophobic surfactant per 100 g of hydrophilic surfactant giving acceptable optical clarity [2, 11]: 15 g per 100 g of hydrophilic sur
- approximate maximum grams of hydrophobic surfactant per 100 g of hydrophilic surfactant giving acceptable optical clarity [2, 12]: 10 g per 100 g of hydrophilic sur
- approximate maximum grams of hydrophobic surfactant per 100 g of hydrophilic surfactant giving acceptable optical clarity [2, 13]: 25 g per 100 g of hydrophilic sur
- approximate maximum grams of hydrophobic surfactant per 100 g of hydrophilic surfactant giving acceptable optical clarity [2, 14]: 65 g per 100 g of hydrophilic sur
- approximate maximum grams of hydrophobic surfactant per 100 g of hydrophilic surfactant giving acceptable optical clarity [2, 15]: 20 g per 100 g of hydrophilic sur
- approximate maximum grams of hydrophobic surfactant per 100 g of hydrophilic surfactant giving acceptable optical clarity [2, 16]: 5 g per 100 g of hydrophilic sur
- approximate maximum grams of hydrophobic surfactant per 100 g of hydrophilic surfactant giving acceptable optical clarity [2, 17]: 5 g per 100 g of hydrophilic sur

Compound: tetrahydrofurfuryl alcohol PEG ether [Glycofurol]
- maximum hydrophobic surfactant concentration giving a clear aqueous dispersion [2, 3]: 20 g per 100 g of hydrophilic sur
- maximum hydrophobic surfactant concentration giving a clear aqueous dispersion [2, 4]: 25 g per 100 g of hydrophilic sur
- maximum hydrophobic surfactant concentration giving a clear aqueous dispersion [2, 5]: 30 g per 100 g of hydrophilic sur
